Read-outs that look alike come from different tables or passages of the source.

Assay [1] has as its system Type 2 herpes simplex strain 3345. The assay can be described thus: Herpes simplex virus bioassay in Vero cells, inhibition of hsv2 (Example 2). The class given is cell-based. As to conditions: Human alphaherpesvirus 2, Vero. As to the method:
. Culture and assay methods follow those described by Lennette and Schmidt (1979) for herpes simplex virus and Vero cells with minor modifications.
Type 1 herpes simplex strain HFEM is a derivative of the Rockerfeller strain HF (Wildy 1955), and Type 2 herpes simplex strain 3345, a penile isolate (Skinner et al 1977) were used as prototype strains. These prototypes were stored at −80° C. until needed.
African Green Monkey kidney cells (vero) were obtained from the National Institute of Biological Standards and Control UK and were used as the only cell line for all experiments in this example.
Cells and viruses were maintained on Glasgows modified medium supplemented with 10% foetal bovine serum.

The test system of assay [2] is type 2 herpes simplex virus strain 3345. The assay can be described thus: Inhibition of HSV2 replication in infected African green monkey kidney cells (Example 1, Table 1). The assay is classed as cell-based. As to conditions: for inhibition of virus replication: Lithium 0 mN. From the text: Compositions were applied to African green monkey kidney and […] cells infected with type 2 herpes simplex virus strains 3345 and 180 at low, intermediate and high multiplicities of infection. MOI inhibition of virus replication was scored as follows: […]

As to `NS(=O)(=O)c1cc(C(=O)O)c(NCc2ccco2)cc1Cl` [Frusemide, 4-chloro-N-furfuryl-5-sulfamoylanthranilic acid], the inhibition at 1000 µg/mL was determined as 0% in assay [1] (read-out: Inhibition of hsv2, Effect of frusemide alone, Multiplicity of infection High, frusemide (1 mg/ml)); 40% in assay [1] (read-out: Inhibition of hsv2, Effect of frusemide alone, Multiplicity of infection Low, frusemide (1 mg/ml)); 40% in assay [1] (read-out: Inhibition of hsv2, Effect of frusemide alone, Multiplicity of infection Medium, frusemide (1 mg/ml)); 0% in assay [2] (Human alphaherpesvirus 2). Besides, the “inhibition of virus replication” value in assay [2] (HIGH MOI HSV2, Frusemide 0.5 mg/ml) is “− (No inhibition)”; in assay [2] (HIGH MOI HSV2, Frusemide 1.0 mg/ml), “− (No inhibition)”; in assay [2] (HIGH MOI HSV2, Frusemide 2.0 mg/ml), “− (No inhibition)”; in assay [2] (LOW MOI HSV2, Frusemide 0.5 mg/ml), “− (No inhibition)”; in assay [2] (LOW MOI HSV2, Frusemide 1.0 mg/ml), “− (No inhibition)”; in assay [2] (LOW MOI HSV2, Frusemide 2.0 mg/ml) it was “− (No inhibition)”. Moreover, in assay [2] (Human alphaherpesvirus 2), the inhibition at 500 µg/mL came out at 0%. The inhibition at 2000 µg/mL in assay [2] (Human alphaherpesvirus 2) came to 0%. Moreover, in assay [2] (frusemide 2 mg/ml, all multiplicities of infection), the “inhibition of hsv2 replication” value is “no inhibition”.

The record behind these values is patent US20060029684A1, “Synergistic treatment of DNA viral infections” (Henderson Morley Research and Development Limited, priority 1999, published 2006).
